One experiment relates to eastern black nightshade. In words: Test C pre-/postemergence herbicide test. In kind it is in vivo, Solanum ptycanthum. The following applies: for Plant response rating, Nightshade / Plant response rating (0 = no effect, 100 = complete control), Nightshade: preemergence. In short, it runs like this:
(§1)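 Pre/post spray; non-phytotoxic solvent + surfactant. Post-timing 1–4 leaves, 2–18 cm. Read-out: visual % control vs untreated, day 12–14, greenhouse.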

A further experiment deals with wheat. In words: Test C postemergence herbicide test. Format: in vivo, Triticum aestivum. As for the experimental part: At the same time, plants selected from these crop and weed species and also winter barley (Hordeum vulgare L.), blackgrass (Alopecurus myosuroides Huds.), canarygrass (Phalaris minor Retz.), chickweed (Stellaria media (L.) Vill.), downy bromegrass (Bromus tectorum L.), green foxtail (Setaria viridis (L.) Beauv.), Italian ryegrass (Lolium multiflorum Lam.), wheat (Triticum aestivum L.), wild oat (Avenafatua L.) and windgrass (Apera spica-venti (L.) Beauv.) were treated with postemergence applications of some of the test chemicals formulated in the same manner. Plants ranged in height from 2 to 18 cm (1- to 4-leaf stage) for postemergence treatments. Plant species in the flooded paddy test consisted of rice (Oryza sativa), smallflower umbrella sedge (Cyperus difformis L.), ducksalad (Heteranthera limosa (Sw.) Willd.) and barnyardgrass (Echinochloa crus-galli (L.) Beauv.) grown to the 2-leaf stage for testing. Treated plants and controls were maintained in a greenhouse for 12 to 14 days, after which time all species were compared to controls and visually evaluated. Plant response ratings, summarized in Table C, are based on a scale of 0 to 100 where 0 is no effect and 100 is complete control. A dash (-) response means no test result.

A further experiment deals with johnsongrass. Put plainly: Test C pre-/postemergence herbicide test. In kind it is in vivo, Sorghum halepense. In short, it runs like this:
as §1

The subject of another experiment is barnyardgrass. Put plainly: Test C flooded paddy test. Format: in vivo, Echinochloa crus-galli. In short, it runs like this:
(§2)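 Ratings (0 = no effect, 100 = complete control) come from visual comparison with untreated plants after 12 to 14 days in the greenhouse. Treatment was postemergence at the 1- to 4-leaf stage (2–18 cm), or at the 2-leaf stage for the flooded paddy barnyardgrass.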

In another experiment the test system is chickweed. In words: Test C postemergence herbicide test. In kind it is in vivo, Stellaria media. In short, it runs like this:
as §2

Another experiment concerns downy bromegrass. In words: Test E pre-/postemergence herbicide test. In kind it is in vivo, Bromus tectorum. The method in brief:
(§3)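 Greenhouse whole-plant test: compounds formulated in a non-phytotoxic solvent mixture with surfactant were applied preemergence to planted seeds and, concurrently, postemergence to plants 2 to 18 cm tall. Response was scored visually after 12 to 14 days, 0 meaning no effect and 100 complete control.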

Another experiment concerns common ragweed. Put plainly: Test E pre-/postemergence herbicide test. In kind it is in vivo, Ambrosia elatior. In short, it runs like this: as §3
The next experiment relates to broadleaf signalgrass. In words: Test E pre-/postemergence herbicide test. Format: in vivo, Brachiaria platyphylla. In short, it runs like this:
as §3

Another experiment concerns common chickweed. In words: Test E pre-/postemergence herbicide test. In kind it is in vivo, Stellaria media. The method in brief:
as §3

The subject of a further experiment is tropical spiderwort. Put plainly: Test E pre-/postemergence herbicide test. In kind it is in vivo, Commelina benghalensis. In short, it runs like this: as §3
Setting [1] is: Postemergence, 500 g ai/ha, scale 0 to 100, 0 no effect, 100 complete control.
Setting [2] is: postemergence, 125 g ai/ha, scale 0 to 100.
The mark [3] stands for this setting: postemergence, 62 g ai/ha, scale 0 to 100.
[4] abbreviates: 62 g ai/ha, preemergence, scale 0 to 100.
Setting [5] is: 250 g ai/ha, scale 0-100, preemergence.
Setting [6] is: 62 g ai/ha, scale 0 to 100 (0 no effect, 100 complete control).
The mark [7] stands for this setting: 125 g ai/ha, scale 0 to 100 (0 no effect, 100 complete control).
Where [8] appears, read: 250 g ai/ha, scale of 0 to 100, 0 is no effect, 100 is complete control.
The mark [9] stands for this setting: 500 g ai/ha, visual rating after 12 to 14 days, scale 0 to 100 (0 no effect, 100 complete control).
[10] abbreviates: Postemergence, 250 g ai/ha, scale 0 to 100, 0 no effect, 100 complete control.
Setting [11] is: Preemergence, 500 g ai/ha, scale 0 to 100, 0 no effect, 100 complete control.
The mark [12] stands for this setting: Postemergence, 250 g ai/ha, scale 0 to 100.
Where [13] appears, read: Preemergence, 62 g ai/ha, scale 0 to 100.
Setting [14] is: Preemergence, 125 g ai/ha, scale 0 (no effect) to 100 (complete control).
Where [15] appears, read: Preemergence, 250 g ai/ha, scale 0 (no effect) to 100 (complete control).
Setting [16] is: Preemergence, 500 g ai/ha, scale 0 (no effect) to 100 (complete control).

Turning to `C=CCNC(=O)c1cccc(NC(=O)c2nn(C(C)(C)C)nc2CC)c1` [Compound 414], the “Plant response rating, Nightshade” value is on record as 85 in the experiment on eastern black nightshade (62 g ai/ha, scale 0 to 100) and 100 in the experiment on eastern black nightshade (500 g ai/ha, scale 0 to 100 (0 no effect, 100 complete control), visual, 12 to 14 days). Moreover, in the experiment on eastern black nightshade (125 g ai/ha), the “Plant response rating (0 = no effect, 100 = complete control), Nightshade” value amounted to 90. Further, the “Plant response rating, Wheat” value in the experiment on wheat (setting [1]) was 30; in the experiment on wheat (setting [2]), 10; in the experiment on wheat (setting [3]), 10. Further, the “Plant response rating, Johnsongrass” value in the experiment on johnsongrass (setting [4]) turned out to be 95; in the experiment with johnsongrass (setting [5]), 100; with johnsongrass (500 g ai/ha, scale 0 to 100 (0 no effect, 100 complete control), visual, 12 to 14 days, preemergence), 100. In the experiment on johnsongrass (125 g ai/ha, preemergence), the “Plant response rating (0 = no effect, 100 = complete control), Johnsongrass” value is given as 95.
Consider `CCn1nc(C(C)(C)C)cc1C(=O)Nc1cc(C(=S)N(C)C)ccn1` [Compound 334], for which the “Plant response rating, Nightshade” value with eastern black nightshade (62 g ai/ha, scale 0 to 100) worked out at 100; with eastern black nightshade (125 g ai/ha, scale 0 (no effect) to 100 (complete control), visual, 12 to 14 days), 100; with eastern black nightshade (250 g ai/ha, scale 0-100), 100. Further, the entries for the “Barnyardgrass plant response rating” value in the experiment on barnyardgrass (setting [6]), with barnyardgrass (setting [7]) and in the experiment with barnyardgrass (setting [8]) were 70, 90 and 95, respectively. In the experiment with barnyardgrass (setting [9]), the “Plant response rating, Barnyardgrass” value is 95. Further, the “Plant response rating, Wheat” value was 75 in the experiment on wheat (setting [10]), 75 in the experiment with wheat (setting [2]) and 65 with wheat (setting [3]). Further, the “Plant response rating, Johnsongrass” value in the experiment on johnsongrass (setting [4]) is 90; with johnsongrass (125 g ai/ha, scale 0 (no effect) to 100 (complete control), visual, 12 to 14 days, preemergence) it was 100; in the experiment with johnsongrass (setting [5]) it was 100.
In the case of `CCOC(=O)c1cccc(NC(=O)c2nn(C(C)(C)CC)nc2CC)c1` [Compound 375], the “Plant response rating, Nightshade” value with eastern black nightshade (62 g ai/ha, scale 0 to 100) was 50; in the experiment with eastern black nightshade (250 g ai/ha, scale 0-100) it was 55. Besides, in the experiment on eastern black nightshade (125 g ai/ha), the “Plant response rating (0 = no effect, 100 = complete control), Nightshade” value turned out to be 50. Besides, the “Plant response rating, Wheat” value in the experiment with wheat (setting [2]) was 30; in the experiment with wheat (setting [3]) it was 25. In addition, the “Plant response rating, Johnsongrass” value with johnsongrass (setting [4]) came to 0; in the experiment with johnsongrass (setting [5]) it was 5; with johnsongrass (setting [10]), 10; in the experiment on johnsongrass (setting [2]), 5; in the experiment with johnsongrass (setting [3]) it was 5. Also, the “Plant response rating (0 = no effect, 100 = complete control), Johnsongrass” value with johnsongrass (125 g ai/ha, preemergence) was found to be 5. In addition, the “Plant response rating, Chickweed” value in the experiment with chickweed (setting [10]) is recorded as 100; with chickweed (setting [2]) it was 100; in the experiment with chickweed (postemergence, 31 g ai/ha, scale 0 to 100), 100; with chickweed (setting [3]) it was 100.
On to `CCNC(=O)c1ccc(F)c(NC(=O)c2c3c(nn2CC)C(C)(C)CC3)c1` [Compound 353], for which the figures for the “Barnyardgrass plant response rating” value with barnyardgrass (setting [6]), with barnyardgrass (setting [7]) and in the experiment on barnyardgrass (setting [8]) were 0, 0 and 20, respectively. In addition, the “Plant response rating, Barnyardgrass” value in the experiment on barnyardgrass (setting [9]) is 20. The “Plant response rating, Wheat” value stood at 30 in the experiment on wheat (setting [10]), 35 in the experiment with wheat (setting [1]), 15 in the experiment on wheat (setting [2]) and 10 with wheat (setting [3]).
As to `CCNC(=O)c1ccc(F)c(NC(=O)c2cc(C(C)(C)C)nn2CC)c1` [Compound 2, 3-(1,1-dimethylethyl)-1-ethyl-N-[5-[(ethylamino)carbonyl]-2-fluorophenyl]-1H-pyrazole-5-carboxamide], the “Plant response rating (0 = no effect, 100 = complete control), Nightshade” value in the experiment on eastern black nightshade (62 g ai/ha) came to 100. Further, the “Nightshade plant response rating” value in the experiment with eastern black nightshade (setting [11]) was determined as 100. Also, the pest or weed control at 250 g/ha in the experiment on eastern black nightshade (pre-emergence, 250 g ai/ha, scale 0 to 100 (0 no effect, 100 complete control), visual, 12 to 14 days, read-out: Plant response rating, Nightshade) came to 100%; with barnyardgrass (Echinochloa crus-galli, 250 g ai/ha, visual rating after 12 to 14 days, scale 0 to 100 (0 no effect, 100 complete control), read-out: Plant response rating, Barnyardgrass), 75%; in the experiment on johnsongrass (Sorghum halepense, pre-emergence, 250 g ai/ha, scale 0 to 100 (0 no effect, 100 complete control), visual, 12 to 14 days, read-out: Plant response rating, Johnsongrass), 100%. In addition, the pest or weed control at 62 g/ha in the experiment on barnyardgrass (Echinochloa crus-galli, 62 g ai/ha, scale 0 to 100 (0 no effect, 100 complete control), read-out: Barnyardgrass plant response rating) is 15%. Further, the pest or weed control at 125 g/ha is 75% in the experiment on barnyardgrass (Echinochloa crus-galli, 125 g ai/ha, scale of 0 to 100, 0 is no effect, 100 is complete control, read-out: Barnyardgrass plant response rating) and 90% in the experiment on johnsongrass (Sorghum halepense, pre-emergence, 125 g ai/ha, scale 0-100, read-out: Plant response rating, Johnsongrass). Moreover, in the experiment on barnyardgrass (Echinochloa crus-galli, 500 g ai/ha, visual rating after 12 to 14 days, scale 0 to 100 (0 no effect, 100 complete control), read-out: Plant response rating, Barnyardgrass), the pest or weed control at 500 g/ha is 90%. Further, the “Plant response rating, Bromegrass, Downy” value stood at 98 in the experiment on downy bromegrass (setting [12]); 50 with downy bromegrass (setting [13]); 90 with downy bromegrass (setting [14]); 90 with downy bromegrass (setting [15]); 90 in the experiment on downy bromegrass (setting [16]); 75 in the experiment with downy bromegrass (setting [2]). Further, in the experiment with downy bromegrass (setting [3]), the “Plant response rating, Bromegrass, Downy” value is 65. Besides, the “Plant response rating, Ragweed” value is 20 with common ragweed (setting [13]); 60 in the experiment on common ragweed (setting [14]); 70 in the experiment with common ragweed (setting [15]); 85 in the experiment on common ragweed (setting [16]); 80 in the experiment with common ragweed (setting [2]); 60 in the experiment with common ragweed (setting [3]). Further, the “Plant response rating, Signalgrass” value is 85 in the experiment with broadleaf signalgrass (setting [12]); 50 with broadleaf signalgrass (setting [13]); 70 with broadleaf signalgrass (setting [14]); 75 with broadleaf signalgrass (setting [15]); 90 in the experiment with broadleaf signalgrass (setting [16]); 80 with broadleaf signalgrass (setting [2]). Moreover, the “Plant response rating, Signalgrass” value in the experiment on broadleaf signalgrass (setting [3]) worked out at 30. For the same molecule, the “Plant response rating, Chickweed” value was 90 in the experiment with common chickweed (setting [13]); 90 in the experiment with common chickweed (setting [14]); 95 in the experiment with common chickweed (setting [15]); 95 in the experiment with common chickweed (setting [16]); 100 in the experiment on common chickweed (setting [2]). The “Plant response rating, Spiderwort” value in the experiment on tropical spiderwort (setting [12]) is 70; with tropical spiderwort (setting [13]), 20; with tropical spiderwort (setting [14]), 60; with tropical spiderwort (setting [15]), 70; with tropical spiderwort (setting [16]), 100; in the experiment on tropical spiderwort (setting [3]), 20. Besides, the “Plant response rating (0 = no effect, 100 = complete control), Johnsongrass” value in the experiment with johnsongrass (62 g ai/ha, preemergence) is 70. In addition, the “Johnsongrass plant response rating” value with johnsongrass (setting [11]) was 100.

(Values after patent US20060069132A1, “Azolecarboxamide herbicides” (priority 2004, published 2006).)
